BindingDB's records for PubMed 20126400 (University of Oklahoma, 2010)
pKi: −log10 of the molar value.

Experiments:
Experiment in all cases: Ray2010 Assay 74
[1] = biological target: Cannabinoid receptor 2 (Homo sapiens, UniProt P34972)
From the text: (§1) Table S2 shows raw Ki data for the current study combined with data collected from the literature for the ten additional compounds.

[2] = biological target: T1, Muscarinic acetylcholine receptor M4 (Homo sapiens, UniProt P08173)
T1 sequence (P08173 whole entry): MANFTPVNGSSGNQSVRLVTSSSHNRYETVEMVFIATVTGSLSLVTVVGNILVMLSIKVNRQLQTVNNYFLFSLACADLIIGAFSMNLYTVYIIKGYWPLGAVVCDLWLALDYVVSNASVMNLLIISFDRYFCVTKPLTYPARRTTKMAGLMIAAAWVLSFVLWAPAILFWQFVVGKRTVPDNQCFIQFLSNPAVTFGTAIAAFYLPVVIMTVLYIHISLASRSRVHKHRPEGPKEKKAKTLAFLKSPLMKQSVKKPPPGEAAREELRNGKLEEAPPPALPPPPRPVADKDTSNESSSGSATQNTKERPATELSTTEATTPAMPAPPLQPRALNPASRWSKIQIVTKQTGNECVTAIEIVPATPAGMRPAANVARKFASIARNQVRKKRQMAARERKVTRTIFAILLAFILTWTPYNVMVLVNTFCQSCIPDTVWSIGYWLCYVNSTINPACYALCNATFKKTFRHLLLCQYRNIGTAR
From the text: as §1

[3] = biological target: Cannabinoid receptor 1 (Homo sapiens, UniProt P21554)
Cannabinoid receptor 1, sequence (P21554 whole entry): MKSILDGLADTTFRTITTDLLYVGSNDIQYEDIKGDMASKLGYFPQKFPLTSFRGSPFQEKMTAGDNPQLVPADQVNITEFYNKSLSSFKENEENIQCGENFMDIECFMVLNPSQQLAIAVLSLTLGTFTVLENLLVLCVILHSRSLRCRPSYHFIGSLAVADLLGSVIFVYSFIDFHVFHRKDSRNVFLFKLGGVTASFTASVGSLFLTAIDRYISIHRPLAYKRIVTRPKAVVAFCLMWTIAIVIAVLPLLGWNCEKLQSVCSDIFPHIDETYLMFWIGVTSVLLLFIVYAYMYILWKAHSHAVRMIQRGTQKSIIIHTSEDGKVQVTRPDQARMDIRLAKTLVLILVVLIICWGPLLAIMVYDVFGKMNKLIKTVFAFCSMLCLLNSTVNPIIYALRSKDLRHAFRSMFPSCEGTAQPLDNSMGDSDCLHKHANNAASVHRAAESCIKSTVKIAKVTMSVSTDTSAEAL
From the text: as §1

[4] = biological target: Kappa-type opioid receptor (Homo sapiens, UniProt P41145)
Kappa-type opioid receptor, sequence (P41145 whole entry): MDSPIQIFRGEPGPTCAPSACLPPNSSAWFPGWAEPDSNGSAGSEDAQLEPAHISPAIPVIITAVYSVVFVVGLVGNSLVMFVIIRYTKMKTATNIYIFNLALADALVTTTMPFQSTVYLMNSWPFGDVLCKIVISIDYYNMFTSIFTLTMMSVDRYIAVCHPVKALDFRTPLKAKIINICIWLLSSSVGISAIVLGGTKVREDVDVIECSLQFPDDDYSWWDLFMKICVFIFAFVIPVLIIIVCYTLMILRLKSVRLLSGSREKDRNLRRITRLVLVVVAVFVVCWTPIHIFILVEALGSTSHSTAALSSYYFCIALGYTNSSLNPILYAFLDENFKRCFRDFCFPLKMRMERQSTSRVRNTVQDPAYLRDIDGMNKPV
From the text: as §1

[5] = biological target: D(1B) dopamine receptor (Homo sapiens, UniProt P21918)
D(1B) dopamine receptor, sequence (P21918 whole entry): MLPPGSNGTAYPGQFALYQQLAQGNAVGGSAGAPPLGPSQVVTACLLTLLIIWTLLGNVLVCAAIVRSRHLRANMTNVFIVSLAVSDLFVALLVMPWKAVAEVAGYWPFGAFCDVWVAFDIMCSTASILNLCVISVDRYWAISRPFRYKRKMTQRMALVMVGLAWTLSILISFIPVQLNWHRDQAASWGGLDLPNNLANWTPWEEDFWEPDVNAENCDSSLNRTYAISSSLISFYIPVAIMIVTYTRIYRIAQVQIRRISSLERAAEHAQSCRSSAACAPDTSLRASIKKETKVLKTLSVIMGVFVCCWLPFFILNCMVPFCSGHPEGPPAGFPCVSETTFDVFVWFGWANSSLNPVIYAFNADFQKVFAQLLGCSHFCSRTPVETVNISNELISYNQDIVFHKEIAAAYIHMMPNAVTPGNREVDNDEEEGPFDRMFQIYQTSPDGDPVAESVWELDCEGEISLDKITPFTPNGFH
From the text: as §1

[6] = biological target: T2, Gamma-aminobutyric acid receptor subunit alpha-1/Adenosine receptor A1 (Homo sapiens, UniProt P14867+P30542)
T2 sequence (P30542 whole entry): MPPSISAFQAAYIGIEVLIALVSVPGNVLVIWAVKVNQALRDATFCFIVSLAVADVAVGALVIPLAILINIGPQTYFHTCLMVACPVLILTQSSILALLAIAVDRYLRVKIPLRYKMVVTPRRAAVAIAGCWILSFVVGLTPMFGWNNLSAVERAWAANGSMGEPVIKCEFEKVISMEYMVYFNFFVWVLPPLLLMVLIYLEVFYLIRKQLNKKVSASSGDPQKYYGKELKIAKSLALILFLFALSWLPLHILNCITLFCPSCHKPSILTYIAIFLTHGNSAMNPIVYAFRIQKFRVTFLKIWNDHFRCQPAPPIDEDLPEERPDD
T2 sequence (P14867 whole entry): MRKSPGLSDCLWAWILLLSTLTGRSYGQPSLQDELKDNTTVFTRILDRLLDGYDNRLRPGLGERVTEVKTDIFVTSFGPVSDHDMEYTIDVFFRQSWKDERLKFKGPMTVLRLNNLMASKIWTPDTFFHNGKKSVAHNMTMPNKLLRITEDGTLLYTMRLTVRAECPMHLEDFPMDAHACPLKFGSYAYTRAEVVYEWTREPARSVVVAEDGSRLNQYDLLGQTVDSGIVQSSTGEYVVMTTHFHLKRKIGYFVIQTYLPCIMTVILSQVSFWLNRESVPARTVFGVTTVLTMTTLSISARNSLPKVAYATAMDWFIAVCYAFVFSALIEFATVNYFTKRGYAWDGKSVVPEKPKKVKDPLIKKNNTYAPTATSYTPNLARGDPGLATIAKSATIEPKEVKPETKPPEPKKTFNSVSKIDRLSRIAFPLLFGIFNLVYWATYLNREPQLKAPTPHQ
From the text: as §1

[7] = biological target: Voltage-dependent calcium channel subunit alpha-2/delta-1 (Homo sapiens, UniProt P54289)
Voltage-dependent calcium channel subunit alpha-2/delta-1, sequence (P54289 25-956 limits assumed): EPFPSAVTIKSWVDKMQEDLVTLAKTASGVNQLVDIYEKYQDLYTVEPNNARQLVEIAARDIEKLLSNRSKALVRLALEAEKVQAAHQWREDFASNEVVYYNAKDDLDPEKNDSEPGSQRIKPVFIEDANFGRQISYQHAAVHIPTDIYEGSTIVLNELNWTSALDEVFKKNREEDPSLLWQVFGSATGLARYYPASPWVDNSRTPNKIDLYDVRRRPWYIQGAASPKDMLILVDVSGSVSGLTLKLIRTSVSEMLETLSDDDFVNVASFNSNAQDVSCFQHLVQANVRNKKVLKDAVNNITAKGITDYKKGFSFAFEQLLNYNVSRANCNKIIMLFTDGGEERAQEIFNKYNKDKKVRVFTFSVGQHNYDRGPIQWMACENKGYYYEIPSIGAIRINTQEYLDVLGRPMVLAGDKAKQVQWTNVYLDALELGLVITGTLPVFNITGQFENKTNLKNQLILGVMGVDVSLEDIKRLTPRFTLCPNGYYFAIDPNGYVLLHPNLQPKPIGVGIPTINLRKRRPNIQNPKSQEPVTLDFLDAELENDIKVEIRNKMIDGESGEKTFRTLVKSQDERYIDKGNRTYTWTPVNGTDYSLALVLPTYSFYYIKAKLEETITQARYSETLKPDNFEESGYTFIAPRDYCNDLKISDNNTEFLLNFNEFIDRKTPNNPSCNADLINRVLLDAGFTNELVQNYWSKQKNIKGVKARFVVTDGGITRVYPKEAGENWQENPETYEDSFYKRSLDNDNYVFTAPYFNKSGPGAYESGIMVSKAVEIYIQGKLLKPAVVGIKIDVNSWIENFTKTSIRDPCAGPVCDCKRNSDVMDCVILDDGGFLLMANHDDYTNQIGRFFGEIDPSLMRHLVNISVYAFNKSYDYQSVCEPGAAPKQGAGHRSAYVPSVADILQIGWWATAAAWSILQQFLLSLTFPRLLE
Voltage-dependent calcium channel subunit alpha-2/delta-1, sequence (P54289 957-1103 limits assumed): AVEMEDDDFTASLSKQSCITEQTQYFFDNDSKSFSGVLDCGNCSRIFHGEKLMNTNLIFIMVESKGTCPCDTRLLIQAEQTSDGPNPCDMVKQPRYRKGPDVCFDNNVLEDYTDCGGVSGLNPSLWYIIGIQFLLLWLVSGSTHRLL
From the text: as §1

[8] = biological target: T3, Muscarinic acetylcholine receptor M5 (Homo sapiens, UniProt P08912)
T3 sequence (P08912 whole entry): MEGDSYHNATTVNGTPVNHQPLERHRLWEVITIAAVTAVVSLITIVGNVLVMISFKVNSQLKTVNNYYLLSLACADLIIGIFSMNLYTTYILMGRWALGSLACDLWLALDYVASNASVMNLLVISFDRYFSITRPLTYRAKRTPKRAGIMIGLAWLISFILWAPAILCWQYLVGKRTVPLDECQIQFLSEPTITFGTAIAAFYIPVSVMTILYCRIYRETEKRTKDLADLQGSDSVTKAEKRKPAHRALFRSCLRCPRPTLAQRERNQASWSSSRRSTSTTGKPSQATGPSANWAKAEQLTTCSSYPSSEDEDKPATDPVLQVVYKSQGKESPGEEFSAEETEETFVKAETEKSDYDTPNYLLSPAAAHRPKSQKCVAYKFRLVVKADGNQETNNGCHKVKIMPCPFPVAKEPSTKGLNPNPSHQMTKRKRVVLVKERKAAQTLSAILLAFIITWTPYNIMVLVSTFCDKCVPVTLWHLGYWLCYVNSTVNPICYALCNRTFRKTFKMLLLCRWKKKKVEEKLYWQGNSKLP
From the text: as §1

[9] = biological target: T4, 5-hydroxytryptamine receptor 3A (Homo sapiens, UniProt P46098)
T4 sequence (P46098 whole entry): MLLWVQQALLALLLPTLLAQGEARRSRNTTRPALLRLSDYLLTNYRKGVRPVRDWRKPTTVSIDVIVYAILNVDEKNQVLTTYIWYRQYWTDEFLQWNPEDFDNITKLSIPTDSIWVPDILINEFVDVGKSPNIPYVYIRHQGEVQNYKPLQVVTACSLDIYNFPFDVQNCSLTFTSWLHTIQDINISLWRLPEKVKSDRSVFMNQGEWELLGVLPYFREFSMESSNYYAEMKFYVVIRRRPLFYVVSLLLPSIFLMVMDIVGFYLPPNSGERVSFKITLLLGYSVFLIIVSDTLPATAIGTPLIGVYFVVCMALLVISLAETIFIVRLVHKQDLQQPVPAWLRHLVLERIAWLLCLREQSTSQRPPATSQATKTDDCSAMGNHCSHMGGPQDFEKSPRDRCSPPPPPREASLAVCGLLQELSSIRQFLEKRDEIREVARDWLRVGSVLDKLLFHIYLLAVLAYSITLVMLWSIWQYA
From the text: as §1

[10] = biological target: Nischarin (Homo sapiens, UniProt Q9Y2I1)
From the text: as §1

[11] = biological target: 5-hydroxytryptamine receptor 5A (Homo sapiens, UniProt P47898)
5-hydroxytryptamine receptor 5A, sequence (P47898 whole entry): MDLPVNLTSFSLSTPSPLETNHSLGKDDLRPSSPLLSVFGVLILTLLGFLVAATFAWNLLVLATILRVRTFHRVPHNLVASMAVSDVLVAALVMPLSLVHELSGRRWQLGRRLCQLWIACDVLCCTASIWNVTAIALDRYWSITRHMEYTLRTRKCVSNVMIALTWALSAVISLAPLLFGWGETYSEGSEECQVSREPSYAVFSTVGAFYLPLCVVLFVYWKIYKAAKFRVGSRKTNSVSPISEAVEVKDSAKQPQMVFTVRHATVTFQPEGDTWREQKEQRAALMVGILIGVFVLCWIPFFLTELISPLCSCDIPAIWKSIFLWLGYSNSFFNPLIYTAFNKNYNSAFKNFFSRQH
From the text: as §1

[12] = biological target: 5-hydroxytryptamine receptor 1B (Homo sapiens, UniProt P28222)
5-hydroxytryptamine receptor 1B, sequence (P28222 whole entry): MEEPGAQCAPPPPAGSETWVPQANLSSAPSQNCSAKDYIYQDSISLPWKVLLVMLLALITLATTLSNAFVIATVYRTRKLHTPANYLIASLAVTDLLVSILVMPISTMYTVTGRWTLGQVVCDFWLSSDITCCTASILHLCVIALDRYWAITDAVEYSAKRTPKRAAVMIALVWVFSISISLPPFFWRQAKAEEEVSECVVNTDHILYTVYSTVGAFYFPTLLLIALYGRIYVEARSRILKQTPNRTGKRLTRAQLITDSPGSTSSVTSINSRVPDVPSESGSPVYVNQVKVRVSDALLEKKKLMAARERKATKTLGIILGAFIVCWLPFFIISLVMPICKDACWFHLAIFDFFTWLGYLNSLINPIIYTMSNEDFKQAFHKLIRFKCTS
From the text: as §1

[13] = biological target: D(1A) dopamine receptor (Homo sapiens, UniProt P21728)
From the text: as §1

[14] = biological target: 5-hydroxytryptamine receptor 6 (Homo sapiens, UniProt P50406)
5-hydroxytryptamine receptor 6, sequence (P50406 whole entry): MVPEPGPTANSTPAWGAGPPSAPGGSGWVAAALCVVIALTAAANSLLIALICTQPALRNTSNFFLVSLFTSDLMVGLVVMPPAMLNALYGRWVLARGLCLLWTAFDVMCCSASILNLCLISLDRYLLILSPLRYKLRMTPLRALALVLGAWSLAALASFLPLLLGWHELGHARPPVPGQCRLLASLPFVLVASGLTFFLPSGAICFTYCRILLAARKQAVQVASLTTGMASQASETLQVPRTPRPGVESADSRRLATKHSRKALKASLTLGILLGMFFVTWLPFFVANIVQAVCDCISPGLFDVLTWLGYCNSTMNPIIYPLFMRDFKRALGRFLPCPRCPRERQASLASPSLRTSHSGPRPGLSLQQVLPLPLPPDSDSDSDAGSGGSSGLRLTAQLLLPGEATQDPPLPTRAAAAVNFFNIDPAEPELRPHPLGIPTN
From the text: as §1

[15] = biological target: 5-hydroxytryptamine receptor 2A (Homo sapiens, UniProt P28223)
From the text: as §1

[16] = biological target: Histamine H1 receptor (Homo sapiens, UniProt P35367)
Histamine H1 receptor, sequence (P35367 whole entry): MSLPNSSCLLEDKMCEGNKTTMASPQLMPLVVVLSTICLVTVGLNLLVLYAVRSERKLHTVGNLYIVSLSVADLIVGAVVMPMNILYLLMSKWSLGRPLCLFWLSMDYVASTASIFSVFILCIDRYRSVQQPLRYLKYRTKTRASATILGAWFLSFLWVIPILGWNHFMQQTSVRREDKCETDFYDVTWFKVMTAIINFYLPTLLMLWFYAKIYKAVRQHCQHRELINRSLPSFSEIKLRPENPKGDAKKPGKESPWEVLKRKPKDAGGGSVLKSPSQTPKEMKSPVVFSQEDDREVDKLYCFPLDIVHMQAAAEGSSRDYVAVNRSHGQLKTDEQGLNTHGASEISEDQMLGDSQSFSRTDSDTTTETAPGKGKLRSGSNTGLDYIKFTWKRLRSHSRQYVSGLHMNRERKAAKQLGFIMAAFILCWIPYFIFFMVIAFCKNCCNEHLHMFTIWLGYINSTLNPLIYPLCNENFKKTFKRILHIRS
From the text: as §1

[17] = biological target: 5-hydroxytryptamine receptor 1E (Homo sapiens, UniProt P28566)
From the text: as §1

[18] = biological target: T5, Alpha-1A adrenergic receptor (Homo sapiens, UniProt P35348)
T5 sequence (P35348 whole entry): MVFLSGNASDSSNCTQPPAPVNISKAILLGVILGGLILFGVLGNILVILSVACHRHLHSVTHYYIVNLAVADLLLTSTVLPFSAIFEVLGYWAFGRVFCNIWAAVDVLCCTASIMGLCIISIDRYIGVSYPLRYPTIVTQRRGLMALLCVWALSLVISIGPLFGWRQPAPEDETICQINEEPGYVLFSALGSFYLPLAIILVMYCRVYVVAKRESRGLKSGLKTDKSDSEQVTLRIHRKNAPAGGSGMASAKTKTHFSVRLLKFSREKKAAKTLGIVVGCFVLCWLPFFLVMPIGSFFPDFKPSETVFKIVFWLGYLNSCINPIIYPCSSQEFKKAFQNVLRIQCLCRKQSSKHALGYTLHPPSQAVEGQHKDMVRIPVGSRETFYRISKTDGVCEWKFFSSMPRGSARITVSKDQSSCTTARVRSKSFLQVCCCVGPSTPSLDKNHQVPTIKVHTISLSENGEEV
From the text: as §1

[19] = biological target: D(2) dopamine receptor (Homo sapiens, UniProt P14416)
From the text: as §1

[20] = biological target: 5-hydroxytryptamine receptor 2B (Homo sapiens, UniProt P41595)
5-hydroxytryptamine receptor 2B, sequence (P41595 whole entry): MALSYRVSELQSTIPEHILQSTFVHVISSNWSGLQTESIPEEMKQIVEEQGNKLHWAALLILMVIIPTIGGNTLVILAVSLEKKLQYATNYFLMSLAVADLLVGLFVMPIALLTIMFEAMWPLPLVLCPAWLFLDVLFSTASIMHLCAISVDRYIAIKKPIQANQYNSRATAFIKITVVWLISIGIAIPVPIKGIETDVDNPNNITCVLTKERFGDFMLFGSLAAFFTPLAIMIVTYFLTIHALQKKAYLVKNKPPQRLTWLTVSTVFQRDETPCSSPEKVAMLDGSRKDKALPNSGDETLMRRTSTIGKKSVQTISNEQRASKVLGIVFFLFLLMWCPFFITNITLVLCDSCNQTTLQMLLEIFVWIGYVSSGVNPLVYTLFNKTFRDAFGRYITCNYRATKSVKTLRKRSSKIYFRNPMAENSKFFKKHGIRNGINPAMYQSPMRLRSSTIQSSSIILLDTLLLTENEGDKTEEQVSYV
From the text: as §1

[21] = biological target: T6, 5-hydroxytryptamine receptor 1A (Homo sapiens, UniProt P08908)
T6 sequence (P08908 whole entry): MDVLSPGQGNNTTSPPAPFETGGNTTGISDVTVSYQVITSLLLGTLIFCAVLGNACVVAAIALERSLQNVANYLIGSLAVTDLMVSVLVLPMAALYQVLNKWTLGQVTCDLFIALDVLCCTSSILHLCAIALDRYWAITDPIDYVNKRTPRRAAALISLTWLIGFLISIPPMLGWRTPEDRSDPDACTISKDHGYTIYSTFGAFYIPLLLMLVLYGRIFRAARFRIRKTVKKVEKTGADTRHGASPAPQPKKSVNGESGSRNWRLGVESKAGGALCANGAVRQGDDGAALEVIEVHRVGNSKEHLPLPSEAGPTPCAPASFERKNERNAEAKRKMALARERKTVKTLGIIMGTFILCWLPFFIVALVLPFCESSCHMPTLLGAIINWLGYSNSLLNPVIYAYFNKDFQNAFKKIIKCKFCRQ
From the text: as §1

Cannabinoid receptor 2, sequence (P34972 whole entry): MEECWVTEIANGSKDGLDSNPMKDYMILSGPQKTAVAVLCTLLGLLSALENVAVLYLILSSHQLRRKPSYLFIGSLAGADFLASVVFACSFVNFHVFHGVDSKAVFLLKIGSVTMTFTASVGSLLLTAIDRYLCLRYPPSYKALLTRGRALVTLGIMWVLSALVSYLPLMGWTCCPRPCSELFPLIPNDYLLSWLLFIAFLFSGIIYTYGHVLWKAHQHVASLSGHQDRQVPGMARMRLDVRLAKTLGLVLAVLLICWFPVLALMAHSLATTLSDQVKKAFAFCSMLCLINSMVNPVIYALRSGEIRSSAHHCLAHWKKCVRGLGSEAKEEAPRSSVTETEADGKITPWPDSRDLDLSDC

## CCN(CC)C(=O)N[C@H]1C=C2c3cccc4[nH]cc(c34)C[C@H]2N(C)C1 [lisuride, (S)]
[1]
  pKi: < 5.00
[2]
  pKi: < 5.00
[3]
  pKi: < 5.00
[4]
  pKi: < 5.00
[5]
  pKi: 7.11
[6]
  pKi: < 5.00
[7]
  pKi: < 5.00
[8]
  pKi: < 5.00
[9]
  pKi: < 5.00
[10]
  pKi: < 5.00
[11]
  pKi: 8.51

## C[C@@H]1C[C@@H](C)N1C(=O)C1C=C2c3cccc4[nH]cc(c34)C[C@H]2N(C)C1 (some centres not stated) [ss-2c]
[12]
  pKi: 8.62
[13]
  pKi: 6.53
[14]
  pKi: 7.84
[15]
  pKi: 7.72
[16]
  pKi: 5.60
[17]
  pKi: 6.56
[18]
  pKi: 6.07
[19]
  pKi: 7.13
[20]
  pKi: 7.57
[21]
  pKi: 9.40
[11]
  pKi: 7.56
